This note sets out measurements from paper PMC4684357, “Comparative Evaluation of the Antimicrobial Activity of Different Antimicrobial Peptides against a Range of Pathogenic Bacteria” (PLoS ONE, 2015).

Where two headings read alike, the source gives them in different places. Residues, ends and D or L forms follow the SMILES beside them. No end group written: not given here.

In data set [1] the test system is E. coli ATCC25922. In kind it is cell-based, Escherichia coli. The source says:
(§1) The Yersinia ruckeri strain was kindly provided by Prof. Kurt Buchmann, University of Copenhagen, Faculty of Health and Medical Sciences, and the Flavobacterium psychrophilum strain was kindly provided by Prof. Inger Dalsgaard, DTU, Denmark. BW25113 is the Escherichia coli wild-type strain, a derivative of the F^-,λ^- E. coli K12 strain BD792 which was used in generating the KEIO collection. E. coli ATCC25922 is a clinical isolate, serotype O6 and is often used as control strain in antimicrobial susceptibility testing. All strains were grown in Mueller-Hinton-II medium, except L. monocytogenes which was grown in BHI medium and F. psychrophilum which was grown in TYES medium (Tryptone yeast extract plus salts). Incubation took place aerobically at 37°C, except for Y. ruckeri and A. salmonicida, which were grown aerobically at RT (20°C), C. jejuni NCTC11168 which was grown under microaerophilic conditions at 42°C and F. psychrophilum 1947 which was grown under aerobic conditions at 15°C. All plates were incubated for 18–20 hours, except the F. psychrophilum plates, which were incubated for 72 hours.
All plates were incubated for 18–20 hours, except the F. psychrophilum plates which were incubated for 72 hours.
All the MIC measurements were carried out in duplicate.

Data set [2] relates to E. coli ATCC25922. The method, then:
The minimum inhibitory concentrations (MICs) of the AMPs were measured in 96-well microtiter plates according to the Clinical and Laboratory Standards Institute (CLSI, formerly National Committee for Clinical Laboratory Standards [NCCLS]). Briefly, liquid Mueller-Hinton-II medium containing increasing concentrations of AMPs is inoculated with a defined number of cells (approx. 10^5 CFUs/ml) in 96-well microtiter plates (polypropylene), whereas each plate also includes a positive growth control and a negative control (sterile control). After incubation, the MIC is determined by the lowest concentration showing no visible growth. All plates were incubated for 18–20 hours, except the F. psychrophilum plates which were incubated for 72 hours. […]

In a further data set the test system is BW25113 wild-type. Put plainly: MIC in LPS backgrounds. The data set is classed as cell-based, Escherichia coli. Conditions: E. coli BW25113 wild-type; CLSI; triplicates.
From the text: as §1
(§2) The minimum inhibitory concentrations (MICs) of the AMPs were measured in 96-well microtiter plates according to the Clinical and Laboratory Standards Institute (CLSI, formerly National Committee for Clinical Laboratory Standards [NCCLS]). Briefly, liquid Mueller-Hinton-II medium containing increasing concentrations of AMPs is inoculated with a defined number of cells (approx. 10^5 CFUs/ml) in 96-well microtiter plates (polypropylene), whereas each plate also includes a positive growth control and a negative control (sterile control). After incubation, the MIC is determined by the lowest concentration showing no visible growth. All plates were incubated for 18–20 hours, except the F. psychrophilum plates which were incubated for 72 hours.

A further data set has as its system BW25113 ΔrfaC. In kind it is cell-based, Escherichia coli. As to conditions: E. coli BW25113 ΔrfaC; CLSI; triplicates.
From the text: as §1, §2

For another data set, the system named is BW25113 ΔrfaE. In kind it is cell-based, Escherichia coli. Conditions: E. coli BW25113 ΔrfaE; CLSI; triplicates.
From the text: as §1, §2

The next data set concerns BW25113 ΔrfaF. The data set is classed as cell-based, Escherichia coli. Conditions: E. coli BW25113 ΔrfaF; CLSI; triplicates.
From the text: as §1, §2

The test system of another data set is BW25113 ΔrfaG. In kind it is cell-based, Escherichia coli. Conditions: E. coli BW25113 ΔrfaG; CLSI; triplicates.
From the text: as §1, §2

The next data set relates to ATCC25922 ΔrfaC. The data set is classed as cell-based, Escherichia coli. Conditions: E. coli ATCC25922 ΔrfaC; CLSI; triplicates.
From the text: as §1, §2
(§3) Construction of knock-out mutants of E. coli ATCC25922 were constructed using the λ-Red recombinase gene replacement system. Primers for amplification of the npt gene of pKD4 are listed in S1 Table. The correct double-crossover and recombination event was confirmed by primers listed in S1 Table and by sequencing. Finally, the kanamycin cassette was removed.

In a further data set the test system is ATCC25922 ΔrfaE. In kind it is cell-based, Escherichia coli. Conditions: E. coli ATCC25922 ΔrfaE; CLSI; triplicates.
From the text: as §1, §2, §3

In a further data set the test system is ATCC25922 ΔrfaF. In kind it is cell-based, Escherichia coli. Conditions: E. coli ATCC25922 ΔrfaF; CLSI; triplicates.
From the text: as §1, §2, §3

In a further data set the test system is ATCC25922 ΔrfaG. The data set is classed as cell-based, Escherichia coli. Conditions: E. coli ATCC25922 ΔrfaG; CLSI; triplicates.
From the text: as §1, §2, §3

The subject of a further data set is horse erythrocytes. Put plainly: Cytotoxicity assay: haemoglobin release (hemolytic activity). As to conditions: washed horse erythrocytes 10% (v/v) in PBS, 60 min 37°C, absorbance 540 nm, relative to full lysis by 0.2% Triton X-100, average ± SD of duplicates. In kind it is cell-based. The procedure: The cytotoxicity for each AMP was determined spectrophotometrically by measuring the haemoglobin release from horse erythrocytes. Briefly, fresh defibrinated horse blood was washed three times with PBS, centrifuged for 15 minutes at 1000g and resuspended at 10% (v/v) in PBS. Samples of the washed horse erythrocytes (100 μl) were transferred to a 96 well microtiter plate and mixed with 100 μl AMP solution. PBS was used as a negative control, and 0.2% TritonX-100 was used as a positive control. The microtiter plates were incubated for 60 minutes at 37°C and then centrifuged for 10 minutes at 1300g. The supernatants were transferred to a flat-bottom 96 well polystyrene microtiter plate and the haemoglobin release was monitored by measuring the absorbance at 540 nm. The percentage of hemolysis was calculated as 100 *(Asample−APBS)/(ATritonX-100 –APBS), where Asample is the experimental absorbance of the peptide sample, APBS is the control absorbance of untreated erythrocytes, and ATritonX-100 is the absorbance of 0.2% TritonX-100 lysed cells.

For `CC[C@H](C)[C@H](NC(=O)[C@H](CCCCN)NC(=O)[C@H](CCCCN)NC(=O)[C@H](CC(C)C)NC(=O)[C@H](CCCCN)NC(=O)[C@H](CCC(=O)O)NC(=O)[C@H](CCCCN)NC(=O)[C@@H](NC(=O)[C@H](CCCCN)NC(=O)[C@H](CC(N)=O)NC(=O)[C@H](CCCNC(=N)N)NC(=O)[C@H](Cc1ccccc1)NC(=O)[C@H](CCCCN)NC(=O)[C@H](CCCNC(=N)N)NC(=O)[C@H](CC(C)C)NC(=O)[C@H](CCCNC(=N)N)NC(=O)[C@H](CCCCN)NC(=O)[C@H](CCCNC(=N)N)NC(=O)[C@H](CC(C)C)NC(=O)CN)[C@@H](C)CC)C(=O)NCC(=O)N[C@@H](CCC(N)=O)C(=O)N[C@@H](CCCCN)C(=O)N[C@H](C(=O)N[C@@H](CCC(N)=O)C(=O)NCC(=O)N[C@@H](CC(C)C)C(=O)N[C@@H](CC(C)C)C(=O)N1CCC[C@H]1C(=O)N[C@@H](CCCCN)C(=O)N[C@@H](CC(C)C)C(=O)N[C@@H](C)C(=O)N1CCC[C@H]1C(=O)N[C@@H](CCCNC(=N)N)C(=O)N[C@H](C(=O)N[C@@H](CC(=O)O)C(=O)N[C@@H](Cc1ccc(O)cc1)C(=O)O)[C@@H](C)O)[C@@H](C)CC` [Cap18] (H-GLRKRLRKFRNKIKEKLKKIGQKIQGLLPKLAPRTDY-OH), the “Antimicrobial Activity MIC” value with E. coli ATCC25922 [1] is 4 µg/mL; with E. coli ATCC25922 [2], 8 µg/mL; with BW25113 wild-type, 4 to 8 µg/mL; in the data set on BW25113 ΔrfaC, 4 µg/mL; in the data set with BW25113 ΔrfaE, 4 µg/mL; with BW25113 ΔrfaF, 4 µg/mL. Further, the “Antimicrobial Activity MIC” value in the data set with BW25113 ΔrfaG stood at 4 µg/mL; with ATCC25922 ΔrfaC, 2 µg/mL; in the data set with ATCC25922 ΔrfaE, 2 µg/mL; with ATCC25922 ΔrfaF, 2 µg/mL; with ATCC25922 ΔrfaG, 2 µg/mL.

Consider `CC[C@H](C)[C@H](NC(=O)CNC(=O)[C@H](CCC(=O)O)NC(=O)[C@H](CO)NC(=O)[C@@H](NC(=O)[C@H](CCCNC(=N)N)NC(=O)[C@H](CCCCN)NC(=O)[C@H](CCCCN)NC(=O)[C@H](C)NC(=O)[C@H](CO)NC(=O)[C@H](CC(N)=O)NC(=O)[C@H](CCC(=O)O)NC(=O)[C@H](CC(C)C)NC(=O)[C@H](CCCCN)NC(=O)[C@H](CCCCN)NC(=O)[C@H](C)NC(=O)[C@@H](NC(=O)[C@H](CCCCN)NC(=O)[C@H](CO)NC(=O)[C@H](CC(C)C)NC(=O)[C@H](Cc1c[nH]c2ccccc12)NC(=O)[C@@H](N)CO)[C@@H](C)O)[C@@H](C)CC)C(=O)N[C@@H](C)C(=O)N[C@H](C(=O)N[C@@H](C)C(=O)N[C@H](C(=O)N[C@@H](CCC(N)=O)C(=O)NCC(=O)NCC(=O)N1CCC[C@H]1C(=O)N[C@@H](CCCNC(=N)N)C(=O)O)[C@@H](C)CC)[C@@H](C)CC` [Cecropin P1] (H-SWLSKTAKKLENSAKKRISEGIAIAIQGGPR-OH), for which the “Antimicrobial Activity MIC” value in the data set on E. coli ATCC25922 [1] is 32 µg/mL; with E. coli ATCC25922 [2], 16 µg/mL; with BW25113 wild-type, 16 to 32 µg/mL; in the data set with BW25113 ΔrfaC, 8 µg/mL; with BW25113 ΔrfaE, 8 µg/mL; in the data set on BW25113 ΔrfaF, 4 µg/mL. For the same compound, the “Antimicrobial Activity MIC” value in the data set with BW25113 ΔrfaG was 16 µg/mL; in the data set with ATCC25922 ΔrfaC, 8 µg/mL; with ATCC25922 ΔrfaE, 8 µg/mL; in the data set on ATCC25922 ΔrfaF, 8 µg/mL; in the data set on ATCC25922 ΔrfaG, 16 µg/mL.

For `CC[C@H](C)[C@H](NC(=O)CN)C(=O)NCC(=O)N[C@@H](C)C(=O)N[C@H](C(=O)N[C@@H](CC(C)C)C(=O)N[C@@H](CCCCN)C(=O)N[C@H](C(=O)N[C@@H](CC(C)C)C(=O)N[C@H](C(=O)N[C@H](C(=O)NCC(=O)N[C@@H](CC(C)C)C(=O)N1CCC[C@H]1C(=O)N[C@@H](C)C(=O)N[C@@H](CC(C)C)C(=O)N[C@H](C(=O)N[C@@H](CO)C(=O)N[C@@H](Cc1c[nH]c2ccccc12)C(=O)N[C@H](C(=O)N[C@@H](CCCCN)C(=O)N[C@@H](CCCNC(=N)N)C(=O)N[C@@H](CCCCN)C(=O)N[C@@H](CCCNC(=N)N)C(=O)N[C@@H](CCC(N)=O)C(=O)N[C@@H](CCC(N)=O)C(N)=O)[C@@H](C)CC)[C@@H](C)CC)[C@@H](C)O)[C@@H](C)O)C(C)C)C(C)C` [Melittin, reference compound], the “Hemolytic Activity” value in the data set with horse erythrocytes (peptide 128 μg/ml) amounted to 110 ± 1%. In addition, the “Antimicrobial Activity MIC” value was 16 to 32 µg/mL with BW25113 wild-type; 4 µg/mL in the data set with BW25113 ΔrfaC; 4 µg/mL in the data set on BW25113 ΔrfaE; 4 µg/mL with BW25113 ΔrfaF; 4 µg/mL with BW25113 ΔrfaG; 2 µg/mL in the data set with ATCC25922 ΔrfaC. Moreover, the “Antimicrobial Activity MIC” value with ATCC25922 ΔrfaE was found to be 2 µg/mL; in the data set with ATCC25922 ΔrfaF, 2 µg/mL; with ATCC25922 ΔrfaG, 4 µg/mL.

As to `CC[C@H](C)[C@H](NC(=O)[C@@H]1CCCN1C(=O)[C@H](CCCNC(=N)N)NC(=O)[C@@H]1CCCN1C(=O)[C@@H]1CCCN1C(=O)[C@@H](NC(=O)[C@@H]1CCCN1C(=O)[C@H](CCCNC(=N)N)NC(=O)[C@@H]1CCCN1C(=O)[C@H](CC(C)C)NC(=O)[C@H](Cc1ccc(O)cc1)NC(=O)[C@H](CO)NC(=O)CNC(=O)[C@H](CCCCN)NC(=O)[C@H](CC(=O)O)NC(=O)[C@@H](N)C(C)C)[C@@H](C)O)C(=O)N[C@@H](Cc1ccc(O)cc1)C(=O)N[C@@H](CC(N)=O)C(=O)N[C@@H](CCCNC(=N)N)C(=O)N[C@@H](CC(N)=O)C(=O)O` [Pyrrhocoricin] (H-VDKGSYLPRPTPPRPIYNRN-OH), the “Hemolytic Activity” value in the data set on horse erythrocytes (peptide 256 μg/ml) stood at 0 ± 0%.

Regarding “GLRKKFRKTRKRIQKLGRKIGKTGRKVWKAWREYGQIPYPCRI [Cap11]”, the “Antimicrobial Activity MIC” value amounted to 16 µg/mL in the data set on E. coli ATCC25922 [1]; 8 µg/mL in the data set with E. coli ATCC25922 [2]; 8 µg/mL with BW25113 wild-type; 8 µg/mL in the data set on BW25113 ΔrfaC; 8 µg/mL with BW25113 ΔrfaE; 8 µg/mL in the data set on BW25113 ΔrfaF. The “Antimicrobial Activity MIC” value with BW25113 ΔrfaG came out at 8 µg/mL; in the data set on ATCC25922 ΔrfaC, 4 µg/mL; in the data set on ATCC25922 ΔrfaE it was 4 µg/mL; in the data set with ATCC25922 ΔrfaF, 4 µg/mL; with ATCC25922 ΔrfaG it was 8 µg/mL.
